From patent publication US7968097B2, “Identification of Hla-A2-presented T-cell epitopes derived from the oncofoetal antigen-immature laminin receptor protein and uses thereof” (Immatics Biotechnologies GmbH, priority 2005, dated 2011)
Values joined by “and” are separate entries in the source; they are usually repeats but may differ in a detail not shown here. Equal values may be shown once. “Also recorded” adds a separate entry of the source.

Legend:
[1] = system: tumor cells from AML patients; assay: 51Chromium release assay, peptide-specific CTL on tumor cells from AML patients; assay type: cell-based, human; conditions: for recognition of AML cells from A*02-negative patients by peptide-specific T cells / recognition of AML cells from A*02-positive patients by peptide-specific T cells: 1st and 2nd experiment; for A*02-positive AML patients in whom the peptide is a tumor-associated antigen: summary of two sets of experiments
Source text: (§1) CTL derived from healthy HLA-A*0201^+ individuals were generated using a protocol described elsewhere (Zeis M, Siegel S, Schmitz M et al. Induction of cytotoxic T lymphocytes against hematologic neoplasms by survivin RNA-transfected dendritic cells. J Immunol. 2003; 170, 5391-5397.). For the induction of autologous OFA/ILR, peptide-specific CTL obtained from patients with AML and CLL, CD8^+ T cells were separated from PBMC using immunomagnetic beads (MACS®, Miltenyi, Bergisch-Gladbach, Germany), cultured with autologous OFA/iLR peptide-pulsed fully matured DC and restimulated with autologous peptide-pulsed PBMC in the presence of IL-2 (1 ng/ml, CellConcepts, Weisskirch, Germany). After at least four weekly restimulations, CTL reactivity was determined in a conventional 4 h ^51Chromium release assay. Cold target inhibition assays and antibody blocking experiments were performed as previously described (Zeis M, Siegel S, Schmitz M et al. Induction of cytotoxic T lymphocytes against hematologic neoplasms by survivin RNA-transfected dendritic cells. J Immunol. 2003; 170, 5391-5397.).
T cells specific for HLA-A*02-restricted ILR1 were tested on tumor cells from AML patients (4 patients; samples AML-01, -02, -03, -06) (FIG. 4A). Cells from A*02-positive patients (3/4) were recognized with maximum lysis at an E:T ratio of 40:1 ranging between 25,9% and 39,8%.
T cells specific for HLA-A*02-restricted ILR1 were tested on tumor cells from AML patients for a second time to confirm the results obtained in the 1st experiment (9 patients; samples AML-01, -02, -04, -05, -06, -07, -09, -10, -12).
T cells specific for HLA-A*02-restricted ILR2 were tested on tumor cells from AML patients (8 patients; samples AML-01, -02, -04, -05, -06, -07, -10, -12). […] The experiment was conducted a 2nd time with samples from patients […]. In this 2nd experiment, T cells specific for HLA-A*02-restricted ILR2 were tested again on tumor cells from AML patients (4 patients; samples AML-01, -02, -03, -06).

[2] = system: CD8+ T cells of HLA-A*0201+ individuals; assay: Generation of peptide-specific CTL lines with peptide-pulsed matured DC; assay type: cell-based, human; conditions: for generation of CTL lines from healthy HLA-A*0201+ donors: fully matured DC pulsed with the peptide; for generation of autologous peptide-specific CTL lines from patients: one patient with CLL and another with AML, tested against autologous and allogeneic HLA-A2-matched target cells
Source text: The identification of T-helper cell epitopes of tumor associated antigens remains an important task in anti-tumor immunotherapy. To identify T cell-binding epitopes deduced from the OFA-iLR protein, 14 peptides were synthesized (see below) that were predicted by the computer programs PAProC (http://www.uni-tuebingen.de/uni/kxi/) and SYFPEITHY (http://www.syfpeithi.de) to bind to the HLA-A*0201 molecule.
as §1

[3] = system: PBMC of HLA-A*02 positive AML patients; assay: IFN-γ ELISPOT, AML patients; conditions: for samples with significant (>20) CTL responses against peptide: AML patient samples, IFN-γ ELISPOT; for # of positively stained spots (IFN-γ ELISPOT): AML patients, HLA-A*02 positive, one value per patient (table line), T cells cultured seven days with IL-2
Procedure: (§2) To determine the frequency of OFA/iLR peptide-specific T cells in patients, ELISPOT-assays were performed using the Interferon-γ-ELISPOT-Kit (Becton Dickinson, Heidelberg, Germany) according to manufacturer's instructions.
(§3) Prior to analysis, T cells from patients and healthy donors had been kept in culture for seven days in the presence of Interleukin-2 (IL microgram/10^6 PBMC/milliliter).

[4] = target: T1, HLA-A*0201 (Homo sapiens, UniProt P04439, /I218V/L300P/L318F/N151K/N90K/P208A/P217A/Q86G/Q94H/R138H/R169H/T345S); assay: T2 whole cell-binding assay (in vitro reconstitution assay, TAP-deficient T2 cell line); conditions: compared with the Flu nucleoprotein58-66
T1 construct: using the TAP (transporter associated with antigen processing)-deficient T2 cell line; host or cells: T2 (human, TAP-deficient)

[5] = system: PBMC of HLA-A*02 positive myeloma patients; assay: IFN-γ ELISPOT, myeloma patients; conditions: for # of positively stained spots (IFN-γ ELISPOT): Myeloma patients, HLA-A*02 positive, one value per patient (table line), T cells cultured seven days with IL-2; for samples with significant (>20) CTL responses against peptide: myeloma patient samples, IFN-γ ELISPOT
Procedure: as §2, §3

[6] = system: PBMC of HLA-A*02 positive CLL patients; assay: IFN-γ ELISPOT, CLL patients; conditions: for samples with significant (>20) CTL responses against peptide: CLL patient samples, IFN-γ ELISPOT; for # of positively stained spots (IFN-γ ELISPOT): CLL patients, HLA-A*02 positive, one value per patient (table line), T cells cultured seven days with IL-2
Procedure: as §2, §3

[7] = system: tumor cells from CLL patients; assay: 51Chromium release assay, peptide-specific CTL on tumor cells from CLL patients; assay type: cell-based, human; conditions: for A*02-positive CLL patients in whom the peptide is a tumor-associated antigen: summary of two experiments; for recognition of CLL cells from A*02-negative patients by peptide-specific T cells / recognition of CLL cells from A*02-positive patients by peptide-specific T cells: two experiments
Source text: as §1
T cells specific for HLA-A*02-restricted ILR1 were tested on tumor cells from CLL patients (5 patients; samples CLL-01, -02, -03, -05, -06). […] The experiment was repeated (FIG. 3A) with 8 more CLL patients, of whom 4/8 were A*02-positive. […] In summary: • 1. ILR1 is a tumor-associated antigen in 100% (7/7) of A*02-positive CLL patients tested. • 2. ILR1 is restricted by HLA-A*02. Target: T2
T cells specific for HLA-A*02-restricted ILR2 were tested on tumor cells from CLL patients (8 patients; samples CLL-01, -02, -03, -04, -05, -06, -07, -08). […] The experiment was repeated (FIG. 9B) with 5 more CLL patients, of whom 3/5 were A*02-positive. […] Conclusion-and-summary: • 1. ILR2 is a tumor associated antigen in 100% (7/7) of A*02-positive CLL patients tested. • 2. ILR2 is restricted by HLA-A*02. Target: T2

[8] = system: peptide-pulsed T2 cells; assay: Lysis of peptide-pulsed T2 target cells by peptide-specific CTL (peptide titration); assay type: cell-based, human; conditions: for affinity of peptide-specific CTL to the peptide/MHC complex: peptide titration curves

Row | Sequence | recognition of AML cells from A*02-negative patients by peptide-specific T cells [1] | recognition of AML cells from A*02-positive patients by peptide-specific T cells [1] | A*02-positive AML patients in whom the peptide is a tumor-associated antigen [1] [%] | generation of CTL lines from healthy HLA-A*0201+ donors [2] | generation of autologous peptide-specific CTL lines from patients [2] | samples with significant (>20) CTL responses against peptide [3] [%] | # of positively stained spots (IFN-γ ELISPOT) [3] | binding affinity to HLA-A*0201 [4] | # of positively stained spots (IFN-γ ELISPOT) [5] | samples with significant (>20) CTL responses against peptide [5] [%] | median numbers of positively stained CTL compared to responses to Influenza Matrix recall-antigen [6] [%] | samples with significant (>20) CTL responses against peptide [6] [%] | # of positively stained spots (IFN-γ ELISPOT) [6] | A*02-positive CLL patients in whom the peptide is a tumor-associated antigen [7] [%] | recognition of CLL cells from A*02-negative patients by peptide-specific T cells [7] | recognition of CLL cells from A*02-positive patients by peptide-specific T cells [7] | recognition/lysis of T2 cells pulsed with the peptide ([8]; effectors: T cells specific for ILR2) | affinity of peptide-specific CTL to the peptide/MHC complex [8] | recognition/lysis of T2 cells pulsed with the peptide ([8]; effectors: T cells specific for ILR1)
1 | ALCNTDSPL (listed as Homo sapiens) [ILR2] | not recognized (4/4); also recorded: not recognized (0/1) | recognized in all cases (4/4) | 100 | CTL lines could be generated | could be generated eliciting efficient cytotoxic activity | 47 | 0 per 105 PBMC (4×) and 1 per 105 PBMC (2×) and 3 per 105 PBMC (2×) and 34 per 105 PBMC (3×) and 27 per 105 PBMC and 23 per 105 PBMC and 112 per 105 PBMC and 32 per 105 PBMC | strong binding affinity | 0 per 105 PBMC (4×) and 1 per 105 PBMC (2×) and 3 per 105 PBMC (2×) and 34 per 105 PBMC (3×) and 27 per 105 PBMC and 23 per 105 PBMC and 112 per 105 PBMC | 43 | 55 | 56 | 4 per 105 PBMC and 45 per 105 PBMC and 65 per 105 PBMC and 128 per 105 PBMC and 67 per 105 PBMC and 23 per 105 PBMC and 27 per 105 PBMC and 78 per 105 PBMC and 56 per 105 PBMC and 0 per 105 PBMC (5×) and 2 per 105 PBMC and 57 per 105 PBMC | 100 | not recognized in any case (0/4) and 0/2 A*02-negative target cells were recognized | recognized in all cases (4/4); also recorded: CLL cells from 3/3 A*02-positive patients were recognized | lysed in a dose-dependent fashion | high affinity | 
2 | LLAARAIVAI (listed as Homo sapiens) [ILR1] | not recognized (4/4) | recognized in all cases | 100 | CTL lines could be generated | could be generated eliciting efficient cytotoxic activity | 40 | 2 per 105 PBMC (3×) and 3 per 105 PBMC (2×) and 1 per 105 PBMC (2×) and 4 per 105 PBMC and 5 per 105 PBMC and 56 per 105 PBMC and 54 per 105 PBMC and 34 per 105 PBMC (2×) and 33 per 105 PBMC and 25 per 105 PBMC | strong binding affinity | 3 per 105 PBMC and 4 per 105 PBMC and 56 per 105 PBMC (2×) and 76 per 105 PBMC and 43 per 105 PBMC and 22 per 105 PBMC and 23 per 105 PBMC (2×) and 0 per 105 PBMC (2×) and 112 per 105 PBMC and 1 per 105 PBMC | 57 | 76 | 60 | 4 per 105 PBMC and 56 per 105 PBMC (2×) and 77 per 105 PBMC and 88 per 105 PBMC and 122 per 105 PBMC and 45 per 105 PBMC and 35 per 105 PBMC and 0 per 105 PBMC (4×) and 1 per 105 PBMC and 2 per 105 PBMC and 3 per 105 PBMC and 68 per 105 PBMC and 100 per 105 PBMC and 83 per 105 PBMC and 121 per 105 PBMC and 93 per 105 PBMC | 100 | recognized in any case (0/2) and 0/4 A*02-negative target cells were recognized | recognized-in-all cases (3/3); also recorded: CLL cells from 4/4 A*02-positive patients were recognized |  | high affinity | lysed in a dose-dependent fashion
